Source: ChEMBL document CHEMBL1681651, “A broad spectrum anticancer nucleoside with selective toxicity against human colon cells in vitro” (2011)

Legend:
Type in all cases: functional
[1] = test system: TK-10; assay: Growth inhibition of human TK10 cells assessed as cell growth at 100 uM after 48 hrs by SRB assay; conditions: TK-10, 48 h, read-out: Activity
[2] = test system: NCI-H226; assay: Growth inhibition of human NCI-H226 cells assessed as cell growth at 0.1 uM after 48 hrs by SRB assay; conditions: NCI-H226, 48 h, read-out: Activity
[3] = test system: MDA-MB-231; assay: Growth inhibition of human MDA-MB-231 cells assessed as cell growth at 10 uM after 48 hrs by SRB assay; conditions: MDA-MB-231, 48 h, read-out: Activity
[4] = test system: 786-0; assay: Growth inhibition of human 786-0 cells assessed as cell growth at 0.1 uM after 48 hrs by SRB assay; conditions: 786-0, 48 h, read-out: Activity
[5] = test system: HCT-116; assay: Growth inhibition of human HCT116 cells assessed as cell growth at 1 uM after 48 hrs by SRB assay; conditions: HCT-116, 48 h, read-out: Activity
[6] = test system: HCC 2998; assay: Growth inhibition of human HCC2998 cells assessed as cell growth at 100 uM after 48 hrs by SRB assay; conditions: HCC 2998, 48 h, read-out: Activity
[7] = test system: SNB-75; assay: Growth inhibition of human SNB75 cells assessed as cell growth at 0.1 uM after 48 hrs by SRB assay; conditions: SNB-75, 48 h, read-out: Activity
[8] = test system: T47D; assay: Growth inhibition of human T47D cells after 48 hrs by […] growth inhibition assay
[9] = test system: U-251; assay: Growth inhibition of human U251 cells assessed as cell growth at 100 uM after 48 hrs by SRB assay; conditions: U-251, 48 h, read-out: Activity
[10] = test system: OVCAR-5; assay: Growth inhibition of human OVCAR5 cells after 48 hrs by […] growth inhibition assay; conditions: OVCAR-5, 48 h
[11] = test system: NCI-H226; assay: Growth inhibition of human NCI-H226 cells assessed as cell growth at 1 mM after 48 hrs by SRB assay; conditions: NCI-H226, 48 h, read-out: Activity
[12] = test system: EKVX; assay: Growth inhibition of human EKVX cells after 48 hrs by […] growth inhibition assay
[13] = test system: HT-29; assay: Growth inhibition of human HT-29 cells after 48 hrs by […] growth inhibition assay; conditions: HT-29, 48 h
[14] = test system: COLO 205; assay: Growth inhibition of human COLO205 cells assessed as cell growth at 1 uM after 48 hrs by SRB assay; conditions: COLO 205, 48 h, read-out: Activity
[15] = test system: SF-295; assay: Growth inhibition of human SF295 cells assessed as cell growth at 100 uM after 48 hrs by SRB assay; conditions: SF-295, 48 h, read-out: Activity
[16] = test system: CAKI-1; assay: Growth inhibition of human Caki1 cells assessed as cell growth at 1 mM after 48 hrs by SRB assay; conditions: CAKI-1, 48 h, read-out: Activity
[17] = test system: NCI-H460; assay: Growth inhibition of human NCI-H460 cells assessed as cell growth at 1 mM after 48 hrs by SRB assay; conditions: NCI-H460, 48 h, read-out: Activity
[18] = test system: OVCAR-8; assay: Growth inhibition of human OVCAR8 cells assessed as cell growth at 1 mM after 48 hrs by SRB assay; conditions: OVCAR-8, 48 h, read-out: Activity
[19] = test system: ACHN; assay: Growth inhibition of human ACHN cells assessed as cell growth at 100 uM after 48 hrs by SRB assay; conditions: read-out: Activity
[20] = test system: HT-29; assay: Growth inhibition of human HT-29 cells assessed as cell growth at 1 uM after 48 hrs by SRB assay; conditions: HT-29, 48 h, read-out: Activity
[21] = test system: LOX IMVI; assay: Growth inhibition of human LOXIMVI cells assessed as cell growth at 1 uM after 48 hrs by SRB assay; conditions: read-out: Activity
[22] = test system: HOP-62; assay: Growth inhibition of human HOP62 cells assessed as cell growth at 100 uM after 48 hrs by SRB assay; conditions: HOP-62, 48 h, read-out: Activity
[23] = test system: RXF 393; assay: Growth inhibition of human RXF393 cells assessed as cell growth at 1 mM after 48 hrs by SRB assay; conditions: RXF 393, 48 h, read-out: Activity
[24] = test system: MDA-MB-231; assay: Growth inhibition of human MDA-MB-231 cells assessed as cell growth at 1 mM after 48 hrs by SRB assay; conditions: MDA-MB-231, 48 h, read-out: Activity
[25] = test system: EKVX; assay: Growth inhibition of human EKVX cells assessed as cell growth at 1 uM after 48 hrs by SRB assay; conditions: read-out: Activity
[26] = test system: SK-MEL-28; assay: Growth inhibition of human SK-MEL-28 cells after 48 hrs by […] growth inhibition assay; conditions: SK-MEL-28, 48 h, read-out: LC50 (the source's name)
[27] = test system: CAKI-1; assay: Growth inhibition of human Caki1 cells assessed as cell growth at 1 uM after 48 hrs by SRB assay; conditions: CAKI-1, 48 h, read-out: Activity
[28] = test system: UACC-62; assay: Growth inhibition of human UACC62 cells assessed as cell growth at 1 uM after 48 hrs by SRB assay; conditions: UACC-62, 48 h, read-out: Activity
[29] = test system: ACHN; assay: Growth inhibition of human ACHN cells assessed as cell growth at 1 uM after 48 hrs by SRB assay; conditions: read-out: Activity
[30] = test system: CCRF-CEM; assay: Growth inhibition of human CCRF-CEM cells assessed as cell growth at 10 uM after 48 hrs by SRB assay; conditions: read-out: Activity
[31] = test system: OVCAR-5; assay: Growth inhibition of human OVCAR5 cells assessed as cell growth at 100 uM after 48 hrs by SRB assay; conditions: OVCAR-5, 48 h, read-out: Activity
[32] = test system: NCI-H522; assay: Growth inhibition of human NCI-H522 cells assessed as cell growth at 10 uM after 48 hrs by SRB assay; conditions: NCI-H522, 48 h, read-out: Activity
[33] = test system: KM12; assay: Growth inhibition of human KM12 cells assessed as cell growth at 1 uM after 48 hrs by SRB assay; conditions: KM12, 48 h, read-out: Activity
[34] = test system: A498; assay: Growth inhibition of human A498 cells assessed as cell growth at 1 uM after 48 hrs by SRB assay; conditions: A498, 48 h, read-out: Activity
[35] = test system: SNB-75; assay: Growth inhibition of human SNB75 cells assessed as cell growth at 1 mM after 48 hrs by SRB assay; conditions: SNB-75, 48 h, read-out: Activity
[36] = read-out: LC50 (the source's name)
[37] = read-out: pLC50 (the source's name) (converted)

CNC(=O)NC[C@H]1O[C@@H](n2cnc3c(NC(=O)Nc4ccccc4)ncnc32)[C@H](O[Si](C)(C)C(C)(C)C)[C@@H]1O[Si](C)(C)C(C)(C)C
growth at 100 µM [1]: 14%
growth at 0.1 µM [2]: 102%
growth at 10 µM [3]: 106%
growth at 0.1 µM [4]: 108%
growth at 1 µM [5]: 105%
growth at 100 µM [6]: -79%
growth at 0.1 µM [7]: 94%
GI50 ([8]; read-out: GI50): 2.87 µM
CC50 [8, 36]: > 100 µM
TGI ([8]; read-out: TGI): 10.3 µM
GI50 ([8]; read-out: pGI50 (converted)): 2.88 µM
CC50 [8, 37]: > 100 µM
TGI ([8]; read-out: pTGI (converted)): 10.2 µM
growth at 100 µM [9]: 2%
GI50 ([10]; read-out: GI50): 5.24 µM
CC50 [10, 36]: > 100 µM
TGI ([10]; read-out: TGI): 25.2 µM
GI50 ([10]; read-out: pGI50 (converted)): 5.25 µM
CC50 [10, 37]: > 100 µM
TGI ([10]; read-out: pTGI (converted)): 25.1 µM
growth at 1000 µM [11]: -48%
GI50 ([12]; read-out: GI50): 3.7 µM
CC50 [12, 36]: > 100 µM
TGI ([12]; read-out: TGI): 30.6 µM
GI50 ([12]; read-out: pGI50 (converted)): 3.72 µM
CC50 [12, 37]: > 100 µM
TGI ([12]; read-out: pTGI (converted)): 30.9 µM
GI50 ([13]; read-out: GI50): 2.02 µM
CC50 [13, 36]: 6.91 µM
TGI ([13]; read-out: TGI): 3.73 µM
GI50 ([13]; read-out: pGI50 (converted)): 2 µM
CC50 [13, 37]: 6.92 µM
TGI ([13]; read-out: pTGI (converted)): 3.72 µM
growth at 1 µM [14]: 111%
growth at 100 µM [15]: 7%
growth at 1000 µM [16]: -33%
growth at 1000 µM [17]: -75%
growth at 1000 µM [18]: -9%
growth at 100 µM [19]: 10%
growth at 1 µM [20]: 104%
growth at 1 µM [21]: 101%
growth at 100 µM [22]: 26%
growth at 1000 µM [23]: -77%
growth at 1000 µM [24]: -76%
growth at 1 µM [25]: 111%
CC50 [26]: 28.3 µM
growth at 1 µM [27]: 99%
growth at 1 µM [28]: 100%
growth at 1 µM [29]: 108%
growth at 10 µM [30]: 101%
growth at 100 µM [31]: 29%
growth at 10 µM [32]: 90%
growth at 1 µM [33]: 111%
growth at 1 µM [34]: 97%
growth at 1000 µM [35]: -12%

CNC(=O)OC[C@H]1O[C@@H](n2cnc3c(NC(=O)Nc4ccccc4)ncnc32)[C@H](O[Si](C)(C)C(C)(C)C)[C@@H]1O[Si](C)(C)C(C)(C)C
growth at 10 µM [3]: 110%
growth at 10 µM [32]: 52.6%
